Measured values reported in patent US20100305124A1, “Acylated Aminopyridine and Aminopyridazine Insecticides” (BAYER CROPSCIENCE AG, priority 2009, published 2010).
Where two headings read alike, the source gives them in different places.

How the values were obtained:
[1] = test system: green peach aphid (Myzus persicae); assay: Myzus test (MYZUPE spray treatment), Chinese cabbage leaf discs; format: in vivo; conditions: foliar, application rate of 500 g/ha, spray on Chinese cabbage discs, read-out: effect in % (aphids killed)
Procedure: Myzus Test (MYZUPE Spray Treatment)
Solvents: 78 parts by weight of acetone • • 1.5 parts by weight of dimethylformamide Emulsifier: 0.5 part by weight of alkylaryl polyglycol ether
An appropriate preparation of active ingredient is prepared by mixing 1 part by weight of active ingredient with the stated amounts of solvents and emulsifier and diluting the concentrate with emulsifier-containing water to the desired concentration.
Discs of Chinese cabbage (Brassica pekinensis) infested with all stages of the green peach aphid (Myzus persicae) are sprayed with a preparation of active ingredient at the desired concentration.
After the desired time, the effect in % is determined. Here, 100% means that all of the aphids have been killed; 0% means that no aphids have been killed.

[2] = test system: green peach aphid (Myzus persicae); assay: Myzus test (MYZUPE), sprayed aubergine plants; format: in vivo; conditions: read-out: effect in % (aphids killed); for pest or weed control at 100 ppm: application rate of 100 ppm
Procedure: Solvent: 3 parts by weight of dimethylformamide Emulsifier: 1 part by weight of polyoxyethylenealkyl phenyl ether
An appropriate preparation of active ingredient is prepared by mixing 1 part by weight of active ingredient with the stated amount of solvent and emulsifier and diluting the concentrate with water to the desired concentration.
Aubergine plants (Solanum melongena) infested by all stages of the green peach aphid (Myzus persicae) are sprayed with a preparation of active ingredient at the desired concentration.
After the desired time, the effect in % is determined; here, 100% means that all of the aphids have been killed. Conversely, 0% means that no aphids have been killed.

[3] = application rate of 500 ppm, spray on aubergine plants

SMILES | pest or weed control at 500 ppm [2, 3] | also measured
CN(C(=O)c1cn(C)nc1C(F)F)c1ccnnc1 [I-319] |  | pest or weed control at 500 g/ha [1]: ≥ 80%
CCC(=O)Nc1cc(C(=O)N(C)c2cccnc2)ccc1C [I-310] |  | pest or weed control at 500 g/ha [1]: ≥ 80%
CC(C)n1ncc(C(=O)N(C)c2cccnc2)c1C(F)(F)F [I-329] |  | pest or weed control at 500 g/ha [1]: ≥ 80%
CN(C(=O)c1cn(C)nc1C1CC1)c1ccnnc1 [I-324] |  | pest or weed control at 500 g/ha [1]: ≥ 80%
COCc1c(C(=O)N(C)c2cccnc2)cnn1-c1ncccn1 [I-273] |  | pest or weed control at 500 g/ha [1]: ≥ 80%
CN(C(=O)c1cnn(-c2ncccn2)c1C(F)F)c1cccnc1 [I-274] |  | pest or weed control at 500 g/ha [1]: ≥ 80%
CN(C(=O)c1cnn(-c2ncccc2Cl)c1C(F)(F)F)c1cccnc1 [I-272] |  | pest or weed control at 500 g/ha [1]: ≥ 80%
CN(C(=O)c1cnn(-c2ncccn2)c1C(C)(F)F)c1cccnc1 [I-277] |  | pest or weed control at 500 g/ha [1]: ≥ 80%
COc1ccc(C(=O)N(C)c2cccnc2)cc1NC(=O)C(C)C [I-297] |  | pest or weed control at 500 g/ha [1]: ≥ 80%
CCCC(=O)Nc1cc(C(=O)N(C)c2cccnc2)ccc1OC [I-336] |  | pest or weed control at 500 g/ha [1]: ≥ 80%
CN(C(=O)c1ccc(Oc2ccc(Cl)cc2)nc1)c1cccnc1 [I-91] | ≥ 80% | 
O=C(Nc1cccnc1)c1ccc(C(F)(F)C(F)(F)C(F)(F)F)cc1 [I-29] |  | pest or weed control at 500 ppm [2]: ≥ 80%
O=C(Nc1cccnc1)c1ccc(SC(F)(F)F)cc1 [I-37] | ≥ 80% | 
Cc1c(C(=O)Nc2cccnc2)cnn1-c1ncccc1Cl [I-1] |  | pest or weed control at 100 ppm ([2]; spray on aubergine plants): ≥ 80%
CN(C(=O)c1ccc(Cn2cnc(C(F)(F)F)n2)cc1)c1cccnc1 [I-25] | ≥ 80% | 
Cc1cc(C)nc(Sc2ccc(C(=O)N(Cc3ccc([N+](=O)[O-])cc3)c3cccnc3)cn2)n1 [I-229] | ≥ 80% | 
Cc1cc(C)nc(SCc2ccc(C(=O)N(C)c3cccnc3)cc2)n1 [I-70] | ≥ 80% | 
CC(C)SCc1ccc(C(=O)Nc2cccnc2)cc1 [I-34] | ≥ 80% | 
CC(C)S(=O)(=O)c1ccc(Oc2ccc(C(=O)N(C)c3cccnc3)cn2)cc1 [I-130] | ≥ 80% | 
O=C(Nc1cccnc1)c1ccc(C(=O)N2CCCC2)cc1 [I-42] | ≥ 80% | 
CN(C(=O)c1ccc(Oc2ccccc2Cl)nc1)c1cccnc1 [I-98] | ≥ 80% | 
Cc1ccc(C(=O)Nc2cccnc2)cn1 [I-38] | ≥ 80% | 

SMILES | pest or weed control at 500 ppm [2, 3] | also measured
CN(C(=O)c1ccc(Cn2nc(C(F)(F)F)cc2C(F)(F)F)nc1)c1cccnc1 [I-49] | ≥ 80% | 
O=C(Nc1cccnc1)c1ccc(Sc2ncccn2)nc1 [I-194] | ≥ 80% | 
O=C(Nc1cccnc1)c1ccc(N2CCCCC2)nc1 [I-205] | ≥ 80% | 
CN(C)C(=O)c1ccc(C(=O)Nc2cccnc2)cc1 [I-41] | ≥ 80% | 
CN(C(=O)c1ccc(Cn2cncn2)cc1)c1cccnc1 [I-22] | ≥ 80% | 
O=C(Nc1cccnc1)c1ccc(Cn2nc(C(F)(F)F)nc2C(F)(F)F)nc1 [I-6] | ≥ 80% | 
Cc1cc(C)nc(Sc2ccc(C(=O)N(C)c3ccnnc3)cn2)n1 [I-222] | ≥ 80% | 
CCN(C(=O)c1ccc(Sc2ncccn2)nc1)c1cccnc1 [I-196] | ≥ 80% | 
CCN(C(=O)c1ccc(/C=N/OC(C)C)cc1)c1cccnc1 [I-236] | ≥ 80% | 
CCN(C(=O)c1ccc(Oc2ccc(C)cn2)nc1)c1cccnc1 [I-193] | ≥ 80% | 
Cc1ccccc1Oc1ccc(C(=O)N(C)c2cccnc2)cn1 [I-96] | ≥ 80% | 
CN(C(=O)c1ccc(Oc2cccc(Cl)c2)nc1)c1cccnc1 [I-99] | ≥ 80% | 
CN(C(=O)c1ccc(Oc2ccc(OC(F)(F)F)cc2)nc1)c1cccnc1 [I-95] |  | pest or weed control at 100 ppm ([2]; spray on aubergine plants): ≥ 80%
Cc1ccc(Oc2ccc(C(=O)Nc3cccnc3)cc2)cn1 [I-103] | ≥ 80% | 
CCN(C(=O)c1ccc(Oc2ccc(C#N)cc2)nc1)c1cccnc1 [I-165] | ≥ 80% | 
Cc1cccc(Oc2ccc(C(=O)N(C)c3cccnc3)cn2)c1 [I-97] | ≥ 80% | 
CC#CCN(C(=O)c1ccc(Sc2nc(C)cc(C)n2)nc1)c1cccnc1 [I-226] | ≥ 80% | 
CN(C(=O)c1ccc(C(F)(F)C(F)(F)C(F)(F)F)cc1)c1cccnc1 [I-47] |  | pest or weed control at 500 ppm [2]: ≥ 80%
CN(CCC#N)C(=O)c1ccc(C(=O)Nc2cccnc2)cc1 [I-244] | ≥ 80% | 
CCSCc1ccc(C(=O)Nc2cccnc2)cc1 [I-33] | ≥ 80% | 
O=C(Nc1cccnc1)c1ccc(CSC(F)F)cc1 [I-35] | ≥ 80% | 
O=C(Nc1cccnc1)c1ccc(Oc2ccc(Br)cc2)nc1 [I-84] | ≥ 80% | 

SMILES | pest or weed control at 500 ppm [2, 3] | also measured
CSc1ccc(C(=O)N(C)c2cccnc2)cc1F [I-66] | ≥ 80% | 
CC(=O)N(C)c1ccc(C(=O)Nc2cccnc2)cc1 [I-252] | ≥ 80% | 
O=C(Nc1cccnc1)c1ccc(Cn2cnc(C(F)(F)F)n2)cc1 [I-8] | ≥ 80% | 
CCN(C(=O)c1ccc(C(=O)OC)cc1)c1cccnc1 [I-241] | ≥ 80% | 
Cc1ccc(Oc2ccc(C(=O)N(C)c3cccnc3)cn2)cn1 [I-80] | ≥ 80% | 
CN(C(=O)c1ccc(N(C)C(=O)C(F)(F)C(F)(F)C(F)(F)F)cc1)c1cccnc1 [I-247] |  | pest or weed control at 500 ppm [2]: ≥ 80%
Cc1cc(C)nc(Sc2ccc(C(=O)N(Cc3ccc(OC(F)(F)F)cc3)c3cccnc3)cn2)n1 [I-230] | ≥ 80% | 
Cc1ccc(C(=O)N(C)c2cccnc2)cn1 [I-43] | ≥ 80% | 
Cc1cc(C)nc(Sc2ccc(C(=O)N(C)c3cccnc3)cn2)n1 [I-104] | ≥ 80% | 
Cc1nc(Sc2ccc(C(=O)Nc3cccnc3)cn2)nc(C)c1C [I-218] | ≥ 80% | 
CN(C(=O)c1ccc(Oc2cccc(C#N)c2)nc1)c1cccnc1 [I-112] | ≥ 80% | 
CN(C(=O)c1cccc(Cn2cncn2)c1)c1cccnc1 [I-15] | ≥ 80% | 
CN(C(=O)c1ccc(SC(F)(F)F)cc1)c1cccnc1 [I-54] | ≥ 80% | 
CN(C(=O)c1ccc(Cn2cccn2)cc1)c1cccnc1 [I-23] | ≥ 80% | 
CCN(C(=O)c1ccc(Sc2nc(C)cc(C)n2)nc1)c1cccnc1 [I-192] | ≥ 80% | 
CN(C(=O)c1ccc(Oc2ccc([N+](=O)[O-])cc2)nc1)c1cccnc1 [I-93] | ≥ 80% | 
Cc1ccnc(Sc2ccc(C(=O)N(C)c3cccnc3)cn2)n1 [I-137] | ≥ 80% | 
CN(C(=O)c1cnc(Oc2ccc(C#N)cc2)c(Cl)c1)c1cccnc1 [I-149] | ≥ 80% | 
CCN(C(=O)c1ccc(Oc2nc(OC)cc(OC)n2)nc1)c1cccnc1 [I-169] | ≥ 80% | 
COc1cc(OC)nc(Oc2ccc(C(=O)Nc3cccnc3)cc2)n1 [I-170] | ≥ 80% | 
COc1ccc(Oc2ccc(Oc3ccc(C(=O)N(C)c4cccnc4)cn3)cc2)cc1 [I-131] | ≥ 80% | 
Cc1ccnc(Sc2ccc(C(=O)Nc3cccnc3)cn2)n1 [I-195] | ≥ 80% | 

SMILES | pest or weed control at 500 ppm [2, 3] | also measured
CCCSCc1ccc(C(=O)N(C)c2cccnc2)cc1 [I-60] | ≥ 80% | 
Cc1ccnc(Sc2ncc(C(=O)N(C)c3cccnc3)cc2Cl)n1 [I-166] | ≥ 80% | 
O=C(Nc1cccnc1)c1ccc(Cn2cnc(C(F)(F)C(F)(F)F)n2)cc1 [I-17] | ≥ 80% | 
CN(C)c1ccc(C(=O)Nc2cccnc2)cn1 [I-184] | ≥ 80% | 
CCN(C(=O)c1ccc(Sc2nc(OC)cc(OC)n2)cc1)c1cccnc1 [I-178] | ≥ 80% | 
CN(C(=O)c1ccc([N+](=O)[O-])cc1)c1cccnc1 [I-21] | ≥ 80% | 
O=C(Nc1cccnc1)c1ccc(Cn2nc(C(F)(F)F)cc2C(F)(F)F)nc1 [I-9] | ≥ 80% | 
COc1cc(OC)nc(Oc2ccc(C(=O)Nc3cccnc3)cn2)n1 [I-168] | ≥ 80% | 
CCN(C(=O)c1ccc(N(C)C(C)=O)cc1)c1cccnc1 [I-254] | ≥ 80% | 
CC(C)NC(=O)c1cccc(C(=O)N(C)c2cccnc2)c1 [I-75] | ≥ 80% | 
COc1cc(OC)nc(Sc2ccc(C(=O)N(C)c3cccnc3)cc2)n1 [I-177] | ≥ 80% | 
CCCSc1ccc(C(=O)Nc2cccnc2)cc1 [I-68] | ≥ 80% | 
CC(C)O/N=C/c1ccc(C(=O)N(C)c2cccnc2)cc1 [I-234] | ≥ 80% | 
CN(C(=O)c1cnc(Oc2ccc(C(F)(F)F)cc2)c(Cl)c1)c1cccnc1 [I-146] | ≥ 80% | 
CCN(C(=O)c1ccc(N(C)C(=O)C(F)(F)C(F)(F)C(F)(F)F)cc1)c1cccnc1 [I-248] |  | pest or weed control at 500 ppm [2]: ≥ 80%
O=C(Nc1cccnc1)c1ccc(Cn2nc(C(F)(F)F)nc2C(F)(F)F)c(Cl)c1 [I-18] | ≥ 80% | 
CN(C(=O)c1cccc(Cn2cnc(C(F)(F)F)n2)c1)c1cccnc1 [I-12] | ≥ 80% | 
O=C(Nc1cccnc1)c1ccc(Cn2nc(C(F)(F)F)nc2C(F)(F)F)cc1 [I-5] | ≥ 80% | 
CN(C(=O)c1ccc(Oc2ccc(Cl)cc2C#N)nc1)c1cccnc1 [I-113] | ≥ 80% | 
